# Patent US20260271931A1, “HERBICIDAL MIXTURES” (Bayer Aktiengesellschaft, priority 2023, published 2026)
# What was measured:
# Format in all cases: in vivo
# [1] = system: Echinochloa crus-galli (ECHCG); assay: Post-emergence action against weeds, greenhouse pot test, visual rating: Echinochloa crus-galli; details: 1 g a.i./ha
# Bidens pilosa (BIDPI) = assay: Post-emergence action against weeds, greenhouse pot test, visual rating: Bidens pilosa; details: 1 g a.i./ha
# Avena fatua (AVEFA) = assay: Post-emergence action against weeds, greenhouse pot test, visual rating: Avena fatua; details: 1 g a.i./ha
# [2] = system: Sorghum halepense (SORHA); assay: Post-emergence action against weeds, greenhouse pot test, visual rating: Sorghum halepense; details: 1 g a.i./ha, 21 DAT
# Description: When the observed efficacies already exceed the formal sum total of the values of the tests with individual applications, they also exceed the expected value according to Colby, which is calculated using the formula below and is likewise regarded as an indication of synergism (cf. S. R. Colby; in Weeds 15 (1967) pp. 20 to 22):
# where: • A=efficacy of the active ingredient (A) in % at an application rate of a [g a.i./ha]; • B=efficacy of the active ingredient (B) in % at an application rate of b [g a.i./ha]; • E^C=expected value of the effect of the combination (A)+(B) in % at the combined application rate a+b [g a.i./ha].
# The observed values (E^A) from the experiments, given suitable low dosages, show an effect of the combinations exceeding the expected values according to Colby (E^C) (Δ).
# Seeds of mono- and dicotyledonous weeds were placed in sandy loam in pots, covered with soil and grown in a greenhouse under good growth conditions (temperature, air humidity, water supply). Two to three weeks after sowing, the test plants were treated at the two- to four-leaf stage with the compositions of the invention. The compositions of the invention, formulated as spray powders or as emulsion concentrates, were sprayed onto the green parts of the plant in various dosages with an application rate equivalent to […] of water. After the test plants had been kept in the greenhouse under optimum growth conditions for 3 weeks, the activity of the preparations was rated visually in comparison to untreated controls.
# 100% efficacy means complete control of the particular weed tested.
# 0% efficacy means zero control of the particular weed tested.
# Expected values according to Colby are reported under E.
# The exceedance of the expected value E is given as Δ (=synergistic effect).
# The rating period is reported in days after application (DAT).
# Centaurea cyanus (CENCY) = assay: Post-emergence action against weeds, greenhouse pot test, visual rating: Centaurea cyanus; details: 240 h, 1 g a.i./ha, read-out: Herbicidal effect [%] on CENCY 10 DAT
# Kochia scoparia (KCHSC) = assay: Post-emergence action against weeds, greenhouse pot test, visual rating: Kochia scoparia; details: Bassia scoparia, post-emergence, 504 h; 1 g a.i./ha; read-out: Herbicidal effect [%] on KCHSC 21 DAT
structure (smiles),measurement,setting,value
"COc1cc(OC)nc(NC(=O)NS(=O)(=O)c2cc(NC=O)ccc2C(=O)N(C)C)n1 [Foramsulfuron, foramsulfuron]",Herbicidal effect [%] on ECHCG 10 DAT,[1],70%
same,Herbicidal effect [%] on BIDPI 10 DAT,Bidens pilosa (BIDPI),20%
same,Herbicidal effect [%] on BIDPI 21 DAT,Bidens pilosa (BIDPI),30%
same,Herbicidal effect [%] on AVEFA 21 DAT,Avena fatua (AVEFA); 21 DAT,70%
same,pest or weed control at 1 g/ha,"Avena fatua (AVEFA); Avena fatua, 240 h, 10 DAT, read-out: Herbicidal effect [%] on AVEFA 10 DAT",60%
same,Herbicidal effect [%] on SORHA 21 DAT,[2],20%
same,pest or weed control at 1 g/ha,Centaurea cyanus (CENCY),30%
same,pest or weed control at 1 g/ha,Kochia scoparia (KCHSC),20%
